Substitutions are numbered along the chain they refer to. Read-outs that look alike come from different tables or passages of the source.
Experiments:
[1] = target: T1, rSTING CTD (residues 155–341) (Rattus norvegicus, UniProt F1M391); experiment: ITC binding to rSTING-CTD
T1 construct: rSTING (residues 155–341); His tag (TEV protease-cleavable) (N); made in house; host or cells: Escherichia coli BL21 (DE3)
T1 sequence (F1M391 155-341): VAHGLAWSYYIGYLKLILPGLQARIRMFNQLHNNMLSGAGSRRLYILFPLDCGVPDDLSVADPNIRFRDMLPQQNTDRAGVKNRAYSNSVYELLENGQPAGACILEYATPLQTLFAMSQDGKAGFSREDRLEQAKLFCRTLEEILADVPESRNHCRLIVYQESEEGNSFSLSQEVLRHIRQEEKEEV
Protocol: (§1) The plasimids of pET28a-rSTING^CTD, hSTING^CTD, mSTING^CTD and their variants were transformed into Escherichia coli BL21 (DE3) cells for overexpression. Cells were induced at 18 °C with 0.5 mM isopropyl β-d-1-thiogalactopyranoside for 20 hours, then collected and resuspended in buffer A (20 mM Tris-HCl, pH 8.0, 500 mM NaCl). Cells were subjected to ultrasonic lysis and clarified by centrifugation at 21,500 rpm for 90 minutes. Supernatants were loaded onto a HiTrap HP column (GE Healthcare, USA) equilibrated with buffer A. The contaminants were washed with buffer A containing 100 mM imidazole. The target proteins were eluted with buffer A containing 500 mM imidazole. Eluates were further purified by ion-exchange chromatography (HiTrap Q, GE Healthcare) and eluted with a linear sodium chloride gradient. Further purification steps were conducted through gel filtration (Superdex-200; GE Healthcare) equilibrated with 20 mM Tris–HCl, pH 8.0, 200 mM NaCl.
(§2) ITC measurements were performed with an iTC200 instrument (GE Healthcare) at 25 °C. […] A typical titration experiment involved 19 injections of ligand (2 mM) solution into the ITC cell containing protein (0.2 mM). The data were fitted to titration curves with Origin v7.0 (MicroCal).

[2] = tested on: hSTING haplotypes with residue 230 mutations; experiment: IFN-β luciferase assay, residue 230 mutations in hSTING haplotypes; assay type: cell-based, human; conditions: 2′3′-cGAMP stimulation (Fig. 5c)
[3] = target: T2, hSTING CTD (residues 155–341) (Homo sapiens, UniProt Q86WV6, G230A/H232R); experiment: ITC binding to hSTING-CTD
T2 construct: hSTING (residues 155–341); His tag (TEV protease-cleavable) (N); made in house; host or cells: Escherichia coli BL21 (DE3)
Protocol: as §1, §2

rSTING T230I = target: T3, rSTING T230I (Rattus norvegicus, UniProt F1M391, T230I); experiment: ITC binding to rSTING T230I
T3 construct: rSTING (residues 155–341); His tag (TEV protease-cleavable) (N); made in house; host or cells: Escherichia coli BL21 (DE3)
T3 sequence (F1M391 155-341 T230I): T1 sequence (F1M391 155-341) with T76I
Protocol: as §1, §2

rSTING T230L = target: T4, rSTING T230L (Rattus norvegicus, UniProt F1M391, T230L); experiment: ITC binding to rSTING T230L
T4 construct: rSTING (residues 155–341); His tag (TEV protease-cleavable) (N); made in house; host or cells: Escherichia coli BL21 (DE3)
T4 sequence (F1M391 155-341 T230L): T1 sequence (F1M391 155-341) with T76L
Description: The C-terminal domain of rSTING (residues 155–341), hSTING (residues 155–341), mSTING (residues 154–340) for ITC measurements, hereafter named rSTING^CTD, hSTING^CTD, mSTING^CTD, were constructed by cloning into pET28a vector between Nde I and Xho I restriction sites, which contains N-terminal TEV protease-cleavable His tag. All point mutations were generated by PCR-based site-directed mutagenesis method with KOD FX as the polymerase.
The plasimids of pET28a-rSTING^CTD, hSTING^CTD, mSTING^CTD and their variants were transformed into Escherichia coli BL21 (DE3) cells for overexpression. Cells were induced at 18 °C with 0.5 mM isopropyl β-d-1-thiogalactopyranoside for 20 hours, then collected and resuspended in buffer A (20 mM Tris-HCl, pH 8.0, 500 mM NaCl). Cells were subjected to ultrasonic lysis and clarified by centrifugation at 21,500 rpm for 90 minutes. Supernatants were loaded onto a HiTrap HP column (GE Healthcare, USA) equilibrated with buffer A. The contaminants were washed with buffer A containing 100 mM imidazole. The target proteins were eluted with buffer A containing 500 mM imidazole. Eluates were further purified by ion-exchange chromatography (HiTrap Q, GE Healthcare) and eluted with a linear sodium chloride gradient. Further purification steps were conducted through gel filtration (Superdex-200; GE Healthcare) equilibrated with 20 mM Tris–HCl, pH 8.0, 200 mM NaCl. […]

[4] = tested on: hSTING with A230 replaced by Ile or Leu; experiment: ITC binding to hSTING mutants (Fig. S6); design: species or system human
Protocol: as §2

hSTING G230I variant = tested on: hSTING G230I variant; design: method as in Gao et al. [35]; conditions: ref Gao et al. [35]; cited from earlier work

T2 sequence (Q86WV6 155-341 G230A/H232R): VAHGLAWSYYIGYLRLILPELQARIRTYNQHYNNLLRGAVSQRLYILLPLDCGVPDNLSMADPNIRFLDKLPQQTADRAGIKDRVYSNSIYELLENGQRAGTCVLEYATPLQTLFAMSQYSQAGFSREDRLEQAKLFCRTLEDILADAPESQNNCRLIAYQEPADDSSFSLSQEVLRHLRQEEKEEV

Row | Compound | Kd [1] [nM] | binding affinity (in words) [1] | cGAMP-induced IFN-β production, differences between residue 230 mutations [2] | Kd ([1]; ITC, 25 °C, WT rSTING-CTD (T230)) [nM] | binding affinity (in words) ([1]; ITC, rSTING CTD) | binding affinity (in words) [3] | ΔH ([1]; ITC, rSTING T230(WT)) [kcal/mol] | ΔS ([1]; ITC, rSTING T230(WT)) [cal/mol/deg] | ΔH (rSTING T230I; rSTING T230I) [kcal/mol] | ΔS (rSTING T230I; rSTING T230I) [cal/mol/deg] | binding affinity greater than that for WT rSTING (rSTING T230I; rSTING T230I vs WT rSTING) [fold] | ΔH (rSTING T230L) [kcal/mol] | ΔS (rSTING T230L) [cal/mol/deg] | binding by ITC (in words) [4] | response of STING variant to compound (hSTING G230I variant)
1 | Nc1nc2c(ncn2[C@@H]2O[C@@H]3COP(=O)(O)O[C@H]4[C@@H](O)[C@H](n5cnc6c(N)ncnc65)O[C@@H]4COP(=O)(O)O[C@@H]2[C@@H]3O)c(=O)[nH]1 [2′3′-cGAMP, cyclic GMP-AMP with 2′5′ and 3′5′ phosphodiester linkage] | 120 ± 30 | high binding affinities | no differences |  |  |  |  |  |  |  |  |  |  |  | 
2 | Nc1nc2c(ncn2[C@@H]2O[C@@H]3COP(=O)(O)O[C@H]4[C@@H](O)[C@H](n5cnc6c(N)ncnc65)O[C@@H]4COP(=O)(O)O[C@H]3[C@H]2O)c(=O)[nH]1 [3′3′-cGAMP] |  |  |  | 550 ± 110 | high binding affinities |  |  |  |  |  |  |  |  |  | 
3 | Cc1ccc2c(=O)c3cccc(CC(=O)O)c3oc2c1C [DMXAA, 5,6-Dimethylxanthenone 4-acetic acid] |  |  |  |  | none or only weak affinity | none or only weak affinity | -2.77 ± 0.09 | 11.7 | -3.86 ± 0.10 | 16.0 | 50 | -2.31 ± 0.07 | 16.6 | detectable binding | can respond
